Several values for one entry are separate records, joined by “and”; a condition that tells them apart may be missing. Identical values can stand only once.
Assays:
Conditions in all cases: incubation time: 72 h
MDA-MB-453 [1] = assay: normalised viability (% of control), CellTiter-Blue; higher = more viable cells (about 100 = DMSO control)
Experimental: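 DSRT, CellTiter-Blue viability, 72 h incubation. Signal is normalised to DMSO and benzethonium chloride controls. Value is the normalised response at dose 9.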

BT-474 = assay: drug sensitivity score (DSS), CellTiter-Blue viability (DSS (AUC-based score)); higher = stronger viability inhibition; extreme values may be limits of the assay
Experimental: (§1)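 DSRT with the CellTiter-Blue (resazurin reduction) viability readout, fluorescence 560/590 nm, 72 h incubation. Plates were normalised to DMSO and benzethonium chloride controls. DSS is computed from the area under the fitted dose-response curve (5 or 9 concentrations).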

MFM-223 [2] = assay: as above
Experimental: as §1

SK-BR-3 = assay: as above
Experimental: as §1

MDA-MB-468 = assay: as above
Experimental: as §1

CAL-85-1 = assay: as above
Experimental: as §1

HCC1143 = assay: as above
Experimental: as §1

Hs578T = assay: as above
Experimental: as §1

CAL-148 [3] = assay: as above
Experimental: as §1

BT-549 = assay: as above
Experimental: as §1

CAL-120 = assay: as above
Experimental: as §1

MDA-MB-453 [4] = assay: as above
Experimental: as §1

DU-4475 = assay: as above
Experimental: as §1

MDA-MB-436 [5] = assay: as above
Experimental: as §1

HCC1599 [6] = assay: as above
Experimental: as §1

HCC1937 [7] = assay: as above
Experimental: as §1

HDQ-P1 [8] = assay: as above
Experimental: as §1

CAL-51 [9] = assay: as above
Experimental: as §1

MDA-MB-231 = assay: as above
Experimental: as §1

MFM-223 [10] = assay: normalised viability (% of control), CellTiter-Blue; higher = more viable cells (about 100 = DMSO control)
Experimental: (§2)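 DSRT, CellTiter-Blue viability, 72 h incubation. Signal is normalised to DMSO and benzethonium chloride controls. Value is the normalised response at dose 3.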

CAL-148 [11] = assay: as above
Experimental: as §2

MDA-MB-453 [12] = assay: as above; remark: listed apart in the source
Experimental: as §2

MDA-MB-436 [13] = assay: as above
Experimental: as §2

HCC1599 [14] = assay: as above
Experimental: as §2

HCC1937 [15] = assay: as above
Experimental: as §2

HDQ-P1 [16] = assay: as above
Experimental: as §2

CAL-51 [17] = assay: as above
Experimental: as §2

| Structure (SMILES) | normalised viability (MDA-MB-453 [1]; 10000 nM) | drug sensitivity score (BT-474) | drug sensitivity score (MFM-223 [2]) | drug sensitivity score (SK-BR-3) | drug sensitivity score (MDA-MB-468) | drug sensitivity score (CAL-85-1) | drug sensitivity score (HCC1143) | drug sensitivity score (Hs578T) | drug sensitivity score (CAL-148 [3]) | drug sensitivity score (BT-549) | drug sensitivity score (CAL-120) | drug sensitivity score (MDA-MB-453 [4]) | drug sensitivity score (DU-4475) | drug sensitivity score (MDA-MB-436 [5]) | drug sensitivity score (HCC1599 [6]) | drug sensitivity score (HCC1937 [7]) | drug sensitivity score (HDQ-P1 [8]) | drug sensitivity score (CAL-51 [9]) | drug sensitivity score (MDA-MB-231) | normalised viability (MFM-223 [10]; 100 nM) | further results |
| --- | --- | --- | --- | --- | --- | --- | --- | --- | --- | --- | --- | --- | --- | --- | --- | --- | --- | --- | --- | --- | --- |
| CCCCCCCCc1ccc(CCC(N)(CO)CO)cc1 [Fingolimod] | 2.6% | 4.46 | 3.93 | 4.64 | 5.1 | 2.9 | 0 | 5.16 | 0 | 6.99 | 5.43 | 3.02 | 0 | 8.37 | 0 | 5.93 | 3.07 | 0 | 7.64 | 98.6% | normalised viability (CAL-148 [11]; 10 nM): 87.3%; normalised viability (MDA-MB-453 [12]; 10 nM): 108%; normalised viability (MDA-MB-436 [13]; 100 nM): 101%; normalised viability (HCC1599 [14]; 100 nM): 93.9%; normalised viability (HCC1937 [15]; 100 nM): 99%; normalised viability (HDQ-P1 [16]; 10 nM): 119%; normalised viability (CAL-51 [17]; 10 nM): 117% |
| Cc1cc2c(C(C)C)c(O)c(O)c(C=O)c2c(O)c1-c1c(C)cc2c(C(C)C)c(O)c(O)c(C=O)c2c1O [Gossypol] | – | – | – | – | – | – | – | – | – | – | – | – | – | – | – | – | – | – | – | – | normalised viability (MDA-MB-453 [1]; 100000 nM): 2.75%; normalised viability (MFM-223 [10]; 1000 nM): 96.5%; normalised viability (CAL-148 [11]; 100 nM): 105%; normalised viability (MDA-MB-453 [12]; 100 nM): 110%; normalised viability (MDA-MB-436 [13]; 1000 nM): 96.2%; normalised viability (HCC1599 [14]; 1000 nM): 97%; normalised viability (HCC1937 [15]; 1000 nM): 91.7%; normalised viability (HDQ-P1 [16]; 100 nM): 126%; normalised viability (CAL-51 [17]; 100 nM): 96.5% |
| Cc1ccc(NC(=O)c2ccc(CN3CCN(C)CC3)cc2)cc1Nc1nccc(-c2cccnc2)n1 [Imatinib] | 57.6% and 48.6% | 0 | 0 | 0 | 0 | 0 | 0 | 0 | 0 | 0 | 0 | – | 0 | 0 | 0 | 0 | 0 | 0 | 0 | 94.8% and 92.4% | normalised viability (CAL-148 [11]; 10 nM): 84.3% and 89%; normalised viability (MDA-MB-453 [12]; 10 nM): 104% and 94.3%; normalised viability (MDA-MB-436 [13]; 100 nM): 94.8% and 107%; normalised viability (HCC1599 [14]; 100 nM): 96.5% and 97.5%; normalised viability (HCC1937 [15]; 100 nM): 94.5%; normalised viability (HDQ-P1 [16]; 10 nM): 106% and 126%; normalised viability (CAL-51 [17]; 10 nM): 106% and 107% |
| Cn1c(=O)n(-c2ccc(C(C)(C)C#N)cc2)c2c3cc(-c4cnc5ccccc5c4)ccc3ncc21 [NVP-BEZ235] | – | 12 | 19.7 | 15.9 | 13.3 | 16.2 | 15.4 | 18.4 | 19.5 | 18.5 | 20.4 | 21.6 | 13.5 | 5.52 | 8.13 | 14.5 | 16.2 | 20.7 | 17 | – | normalised viability (MDA-MB-453 [1]; 1000 nM): 13.8%; normalised viability (MFM-223 [10]; 10 nM): 51.9%; normalised viability (CAL-148 [11]; 1 nM): 108%; normalised viability (MDA-MB-453 [12]; 1 nM): 96.5%; normalised viability (MDA-MB-436 [13]; 10 nM): 105%; normalised viability (HCC1599 [14]; 10 nM): 84.7%; normalised viability (HCC1937 [15]; 10 nM): 59.9%; normalised viability (HDQ-P1 [16]; 1 nM): 102%; normalised viability (CAL-51 [17]; 1 nM): 106% |
| C/C(=C\c1csc(C)n1)[C@@H]1C[C@@H]2O[C@]2(C)CCC[C@H](C)[C@H](O)[C@@H](C)C(=O)C(C)(C)[C@@H](O)CC(=O)O1 [Patupilone] | – | 18.2 | 12.7 | 23.7 | 15.3 | 24.6 | 16.3 | 23.1 | 24.8 | 22.4 | 19.8 | 22.5 | 22.3 | 15.4 | 1.08 | 27 | 12.2 | 20.4 | 28.5 | – | normalised viability (MDA-MB-453 [1]; 1000 nM): 20.9%; normalised viability (MFM-223 [10]; 10 nM): 81.3%; normalised viability (CAL-148 [11]; 1 nM): 93.1%; normalised viability (MDA-MB-453 [12]; 1 nM): 88.7%; normalised viability (MDA-MB-436 [13]; 10 nM): 66.2%; normalised viability (HCC1599 [14]; 10 nM): 111%; normalised viability (HCC1937 [15]; 10 nM): 25.5%; normalised viability (HDQ-P1 [16]; 1 nM): 125%; normalised viability (CAL-51 [17]; 1 nM): 104% |
| CC[C@]1(O)C[C@H]2CN(CCc3c([nH]c4ccccc34)[C@@](C(=O)OC)(c3cc4c(cc3OC)N(C=O)[C@H]3[C@@](O)(C(=O)OC)[C@H](OC(C)=O)[C@]5(CC)C=CCN6CC[C@]43[C@@H]65)C2)C1 [Vincristine] | 41.6% | – | 16.9 and 22.7 | 33.6 and 41.1 | 23.8 and 23.7 | 17.9 and 25 | 22.6 and 27.4 | 26.5 and 37.7 | 23 and 26.8 | 25.5 and 32 | 27.8 and 35.7 | 19.7 and 30.5 | 18.9 and 28.9 | 18 and 21 | 6.95 and 15.8 | 23.5 and 35 | 17.8 and 20.6 | 17.5 and 26.3 | 27 and 34.4 | 39.5% | normalised viability (MDA-MB-453 [1]; 1000 nM): 38.5%; normalised viability (MFM-223 [10]; 10 nM): 59.8%; normalised viability (CAL-148 [11]; 1 nM): 91.3%; normalised viability (CAL-148 [11]; 10 nM): 90.2%; normalised viability (MDA-MB-453 [12]; 1 nM): 103%; normalised viability (MDA-MB-453 [12]; 10 nM): 31.6%; normalised viability (MDA-MB-436 [13]; 10 nM): 52.4%; normalised viability (MDA-MB-436 [13]; 100 nM): 44.9%; normalised viability (HCC1599 [14]; 10 nM): 93.5%; normalised viability (HCC1599 [14]; 100 nM): 51.1%; normalised viability (HCC1937 [15]; 10 nM): 33.6%; normalised viability (HCC1937 [15]; 100 nM): 17.8%; normalised viability (HDQ-P1 [16]; 1 nM): 109%; normalised viability (HDQ-P1 [16]; 10 nM): 90.7%; normalised viability (CAL-51 [17]; 1 nM): 108%; normalised viability (CAL-51 [17]; 10 nM): 87.8% |

From the supplement of paper PMC4862054
